Numbered stars: 1 amine (or outer) side, 2 acyl side, 3 side chain; on linkers, the order of the positions; unused ones are H or OH. Bridge positions count the residues as written; N and C are the ends. Square brackets hold non-standard residues; d marks the D form. Peptide text beside a SMILES is read from it. * marks the point of attachment. Phe(3-CF3) = N[C@@H](Cc1cccc(C(F)(F)F)c1)C(=O)O; Piperazine(2S-CO,4-Me) = CN1CCN[C@H](C(=O)O)C1; Phe(3-OMe) = COc1cccc(C[C@H](N)C(=O)O)c1; Morpholine(3S-CO) = O=C(O)[C@@H]1COCCN1; Phe(3-Me) = Cc1cccc(C[C@H](N)C(=O)O)c1; X4 = O=C1CN([*:1])[C@H](C(=O)[*:2])CN1; NH(4-Cl-2-F-phenyl) = Fc1cc(Cl)ccc1N*; Pro(4R-Me) = C[C@H]1CN[C@H](C(=O)O)C1; Hyp = O=C(O)[C@@H]1C[C@@H](O)CN1; NH(4-Et-phenyl) = CCc1ccc(N*)cc1; NH(4-Me-phenyl) = Cc1ccc(N*)cc1; aThr = C[C@H](O)[C@H](N)C(=O)O; Pip = O=C(O)[C@@H]1CCCCN1; X3 = c1cc2c(cc1N*)OCCO2; CO = O=C([*:1])[*:2]
Legend:
Sa-ClpP = target: T1, Sa-ClpP (Staphylococcus aureus, UniProt Q2G036); test: ADEP displacement fluorescence polarization assay; format: binding, S. aureus; conditions: displacement of FP probe ADEP 2591 from Sa-ClpP
T1 construct: made in house; host or cells: E. coli BL21 (DE3)
Experimental: A fluorescence polarization (FP) assay was used to determine the activity of the disclosed compounds in displacing an ADEP analogue from ClpP. Briefly, the assay was performed in black 384 well, flat bottom, low volume plates (Greiner Bio-One, Monroe, N.C., catalog #784076). 20 μL of a pre-equilibrated (1 hr, room temperature) master mix (15 μM Sa-ClpP, 2% DMSO (v/v) and 50 nM FP probe in TrisHCl, pH 8.0)) was pipetted into each well using a Well-Mate (Thermo Scientific, Waltham, Mass.). Sa-ClpP was prepared as described above for the ClpP activation assay. The FP probe was ADEP 2591 (structure shown above). The ADEP 2591 comprises a TAMRA fluorophore linked to a core based on modified ADEP 2378 via a short alkyl linker. Using pin transfer, approximately 0.4 μL (2% v/v DMSO) of each compound or control was added per well. After addition of compounds and controls, plates were allowed to incubate for an additional 120 minutes at room temperature. All assays were performed in triplicate. Polarization was monitored using an EnVision Multilabel reader (Perkin-Elmer, Waltham, Mass.) by exciting the FP probe at 530±25 nm, and monitoring fluorescence intensity of both parallel and perpendicular polarized light at 579±25 nm. Readout was in millipolarization units (mP).
Signal gain and G factors were determined in wells containing 200 μM ADEP 2378, which had been previously verified (data not shown) as containing completely unbound ADEP 2591. Data collected was normalized to values obtained from positive (200 μM ADEP 2378) or negative (DMSO) controls. Curves were fit with non-linear regression using the equation “log [inhibitor] vs. Response-variable slope (four parameters)-symmetrical” in the program Prism 6 (GraphPad Software, La Jolla, Calif. USA, www.graphpad.com). The structures for ADEP 2378 and ADEP 2591 are shown above. ADEP 2378 is (E)-N—((S)-1-(((2R,6S,8aS,14aS,20S,23aS)-2,6-dimethyl-5,8,14,19,23-pentaoxooctadecahydro-1H,5H,14H,19H-pyrido[2,1-i]dipyrrolo[2,1-c:2′,1′-1][1]oxa[4,7,10,13]tetraazacyclohexadecin-20-yl)amino)-1-oxo-3-phenylpropan-2-yl)pent-2-enamide. ADEP 2591 is 5-(3-(3-((6S,9S,11aS,17S,20aS)-6,10-dimethyl-5,8,11,16,20-pentaoxo-17-((S)-2-((E)-pent-2-enamido)-3-phenylpropanamido)hexadecahydro-1H,5H,16H-dipyrrolo[2,1-c:2′,1′-1][1]oxa[4,7,10,13]tetraazacyclohexadecin-9-yl)propyl)thioureido)-2-(6-(dimethylamino)-3-(dimethyliminio)-3H-xanthen-9-yl)benzoate.

[1] = Microsomal metabolic stability; format: in vitro ADME, human
[2] = Microsomal metabolic stability; format: in vitro ADME, mouse
Outline: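 CD-1 mouse liver microsomes (0.6381 mg/mL protein microsomal solution, 0.1 M potassium phosphate pH 7.4 with EDTA) were incubated with compound and an NADPH-regenerating system at 37 °C, in triplicate. Acetonitrile/warfarin quench at 0, 15, 30, 60, 120 and 240 min, then LCMS. Half-life came from a first-order least-squares fit.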

T1 sequence (Q2G036 whole entry): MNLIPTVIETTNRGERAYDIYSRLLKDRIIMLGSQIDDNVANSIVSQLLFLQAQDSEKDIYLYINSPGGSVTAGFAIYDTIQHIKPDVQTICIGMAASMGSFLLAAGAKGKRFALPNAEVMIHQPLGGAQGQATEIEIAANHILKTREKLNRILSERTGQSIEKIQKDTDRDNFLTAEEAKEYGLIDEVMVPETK

## C[C@@H]1C[C@H]2C(=O)OC[C@H](NC(=O)[C@H](Cc3cccc(C(F)(F)F)c3)NC(=O)Nc3ccc(Cl)cc3F)C(=O)N3CCC[C@H]3C(=O)N3CCN(C)C[C@H]3C(=O)N[C@@H](C)C(=O)N2C1 [Compound 18, (S)-2-(3-(4-CHLORO-2-FLUOROPHENYL)UREIDO)-3-(3-(TRIFLUOROMETHYL)PHENYL)-N-((6AS,12S,15AS,17R,21S,23AS)-2,17,21-TRIMETHYL-6,11,15,20,23-PENTAOXOOCTADECAHYDRO-2H,6H,11H,15H-PYRAZINO[2,1-I]DIPYRROLO[2,1-C:2′,1′-L][1]OXA[4,7,10,13]TETRAAZACYCLOHEXADECIN-12-YL)PROPANAMIDE] ({NH(4-Cl-2-F-phenyl)-CO}-[Phe(3-CF3)]SP[Piperazine(2S-CO,4-Me)]A[Pro(4R-Me)]; ester 2-C)
Sa-ClpP
  IC50: 4.79 ± 0.27 µM
[1]; human, pH 7.4
  Human – 0.75 ± 0.11 h
[2]; CD-1, mouse, pH 7.4
  Mouse: 1.88 ± 0.12 h

## COc1cccc(C[C@H](NC(=O)Nc2ccc(Cl)cc2F)C(=O)N[C@H]2COC(=O)[C@@H]3C[C@@H](C)CN3C(=O)[C@H](C)NC(=O)[C@@H]3CN(C)CCN3C(=O)[C@@H]3CCCN3C2=O)c1 [Compound 19, (S)-2-(3-(4-CHLORO-2-FLUOROPHENYL)UREIDO)-3-(3-METHOXYPHENYL)-N-((6AS,12S,15AS,17R,21S,23AS)-2,17,21-TRIMETHYL-6,11,15,20,23-PENTAOXOOCTADECAHYDRO-2H,6H,11H,15H-PYRAZINO[2,1-I]DIPYRROLO[2,1-C:2′,1′-L][1]OXA[4,7,10,13]TETRAAZACYCLOHEXADECIN-12-YL)PROPANAMIDE] ({NH(4-Cl-2-F-phenyl)-CO}-[Phe(3-OMe)]SP[Piperazine(2S-CO,4-Me)]A[Pro(4R-Me)]; ester 2-C)
Sa-ClpP
  IC50: 6.05 ± 0.3 µM
[1]; human, pH 7.4
  Human – 0.61 ± 0.06 h
[2]; CD-1, mouse, pH 7.4
  Mouse: 0.80 ± 0.05 h

## Cc1cccc(C[C@H](NC(=O)Nc2ccc(Cl)cc2F)C(=O)N[C@@H]2C(=O)N3CCC[C@H]3C(=O)N3CC(=O)NC[C@H]3C(=O)N[C@@H](C)C(=O)N3C[C@H](C)C[C@H]3C(=O)O[C@H]2C)c1 [Compound 20, (S)-2-(3-(4-CHLORO-2-FLUOROPHENYL)UREIDO)-3-(M-TOLYL)-N-((6AS,12S,13S,15AS,17R,21S,23AS)-13,17,21-TRIMETHYL-3,6,11,15,20,23-HEXAOXOOCTADECAHYDRO-2H,6H,11H,15H-PYRAZINO[2,1-I]DIPYRROLO[2,1-C:2′,1′-L][1]OXA[4,7,10,13]TETRAAZACYCLOHEXADECIN-12-YL)PROPANAMIDE] ({NH(4-Cl-2-F-phenyl)-CO}-[Phe(3-Me)][aThr]P[X4]A[Pro(4R-Me)]; ester 2-C)
Sa-ClpP
  IC50: 4.21 ± 0.2 µM
[1]; human, pH 7.4
  Human – 1.30 ± 0.09 h
[2]; CD-1, mouse, pH 7.4
  Mouse: 6.24 ± 0.7 h

## Cc1cccc(C[C@H](NC(=O)Nc2ccc3c(c2)OCCO3)C(=O)N[C@@H]2C(=O)N3CCC[C@H]3C(=O)N3CCCC[C@H]3C(=O)N[C@@H](C)C(=O)N3C[C@H](C)C[C@H]3C(=O)O[C@H]2C)c1 [Compound 21, (S)-2-(3-(2,3-DIHYDROBENZO[B][1,4]DIOXIN-6-YL)UREIDO)-3-(M-TOLYL)-N-((2R,6S,8AS,14AS,20S,21S,23AS)-2,6,21-TRIMETHYL-5,8,14,19,23-PENTAOXOOCTADECAHYDRO-1H,5H,14H,19H-PYRIDO[2,1-I]DIPYRROLO[2,1-C:2′,1′-L][1]OXA[4,7,10,13]TETRAAZACYCLOHEXADECIN-20-YL)PROPANAMIDE] ({X3-CO}-[Phe(3-Me)][aThr]P[Pip]A[Pro(4R-Me)]; ester 2-C)
Sa-ClpP
  IC50: 3.74 ± 0.24 µM
[1]; human, pH 7.4
  Human – 4.49 ± 0.68 h
[2]; CD-1, mouse, pH 7.4
  Mouse: 3.38 ± 0.37 h

## Cc1cccc(C[C@H](NC(=O)Nc2ccc3c(c2)OCCO3)C(=O)N[C@H]2COC(=O)[C@@H]3C[C@@H](C)CN3C(=O)[C@H](C)NC(=O)[C@@H]3CCCCN3C(=O)[C@@H]3CCCN3C2=O)c1 [Compound 22, (S)-2-(3-(2,3-DIHYDROBENZO[B][1,4]DIOXIN-6-YL)UREIDO)-N-((2R,6S,8AS,14AS,20S,23AS)-2,6-DIMETHYL-5,8,14,19,23-PENTAOXOOCTADECAHYDRO-1H,5H,14H,19H-PYRIDO[2,1-I]DIPYRROLO[2,1-C:2′,1′-L][1]OXA[4,7,10,13]TETRAAZACYCLOHEXADECIN-20-YL)-3-(M-TOLYL)PROPANAMIDE]
Sa-ClpP
  IC50: 4.12 ± 0.29 µM
[1]; human, pH 7.4
  Human – 3.57 ± 0.52 h
[2]; CD-1, mouse, pH 7.4
  Mouse: 4.48 ± 0.61 h

## Cc1cccc(C[C@H](NC(=O)Nc2ccc3c(c2)OCO3)C(=O)N[C@H]2COC(=O)[C@@H]3C[C@@H](C)CN3C(=O)[C@H](C)NC(=O)[C@@H]3CCCCN3C(=O)[C@@H]3CCCN3C2=O)c1 [Compound 23, (S)-2-(3-(BENZO[D][1,3]DIOXOL-5-YL)UREIDO)-N-((2R,6S,8AS,14AS,20S,23AS)-2,6-DIMETHYL-5,8,14,19,23-PENTAOXOOCTADECAHYDRO-1H,5H,14H,19H-PYRIDO[2,1-I]DIPYRROLO[2,1-C:2′,1′-L][1]OXA[4,7,10,13]TETRAAZACYCLOHEXADECIN-20-YL)-3-(M-TOLYL)PROPANAMIDE]
Sa-ClpP
  IC50: 1.96 ± 0.12 µM
[1]; human, pH 7.4
  Human – 30.2 ± 11.7 h
[2]; CD-1, mouse, pH 7.4
  Mouse: 35.8 ± 14.7 h

## CCc1ccc(NC(=O)N[C@@H](Cc2cccc(C)c2)C(=O)N[C@@H]2C(=O)N3C[C@H](O)C[C@H]3C(=O)N3CCOC[C@H]3C(=O)N[C@@H](C)C(=O)N3C[C@H](C)C[C@H]3C(=O)O[C@H]2C)cc1 [Compound 24, (S)-2-(3-(4-ETHYLPHENYL)UREIDO)-N-((6AS,8R,12S,13S,15AS,17R,21S,23AS)-8-HYDROXY-13,17,21-TRIMETHYL-6,11,15,20,23-PENTAOXOOCTADECAHYDRO-6H,11H,15H-[1,4]OXAZINO[3,4-I]DIPYRROLO[2,1-C:2′,1′-L][1]OXA[4,7,10,13]TETRAAZACYCLOHEXADECIN-12-YL)-3-(M-TOLYL)PROPANAMIDE] ({NH(4-Et-phenyl)-CO}-[Phe(3-Me)][aThr][Hyp][Morpholine(3S-CO)]A[Pro(4R-Me)]; ester 2-C)
Sa-ClpP
  IC50: 2.31 ± 0.2 µM
[1]; human, pH 7.4
  Human – 4.89 ± 0.67 h
[2]; CD-1, mouse, pH 7.4
  Mouse: 1.03 ± 0.05 h

## CCc1ccc(NC(=O)N[C@@H](Cc2cccc(C)c2)C(=O)N[C@@H]2C(=O)N3C[C@H](O)C[C@H]3C(=O)N3CCCC[C@H]3C(=O)N[C@@H](C)C(=O)N3C[C@H](C)C[C@H]3C(=O)O[C@H]2C)cc1 [Compound 25, (S)-2-(3-(4-ETHYLPHENYL)UREIDO)-N-((2R,6S,8AS,14AS,16R,20S,21S,23AS)-16-HYDROXY-2,6,21-TRIMETHYL-5,8,14,19,23-PENTAOXOOCTADECAHYDRO-1H,5H,14H,19H-PYRIDO[2,1-I]DIPYRROLO[2,1-C:2′,1′-L][1]OXA[4,7,10,13]TETRAAZACYCLOHEXADECIN-20-YL)-3-(M-TOLYL)PROPANAMIDE] ({NH(4-Et-phenyl)-CO}-[Phe(3-Me)][aThr][Hyp][Pip]A[Pro(4R-Me)]; ester 2-C)
Sa-ClpP
  IC50: 4.76 ± 0.33 µM
[1]; human, pH 7.4
  Human – 15.19 ± 2.47 h
[2]; CD-1, mouse, pH 7.4
  Mouse: 2.35 ± 0.27 h

## Cc1ccc(NC(=O)N[C@@H](Cc2cccc(C)c2)C(=O)N[C@@H]2C(=O)N3C[C@H](O)C[C@H]3C(=O)N3CCCC[C@H]3C(=O)N[C@@H](C)C(=O)N3C[C@H](C)C[C@H]3C(=O)O[C@H]2C)cc1 [Compound 26, (S)—N-((2R,6S,8AS,14AS,16R,20S,21S,23AS)-16-HYDROXY-2,6,21-TRIMETHYL-5,8,14,19,23-PENTAOXOOCTADECAHYDRO-1H,5H,14H,19H-PYRIDO[2,1-I]DIPYRROLO[2,1-C:2′,1′-L][1]OXA[4,7,10,13]TETRAAZACYCLOHEXADECIN-20-YL)-3-(M-TOLYL)-2-(3-(P-TOLYL)UREIDO)PROPANAMIDE] ({NH(4-Me-phenyl)-CO}-[Phe(3-Me)][aThr][Hyp][Pip]A[Pro(4R-Me)]; ester 2-C)
Sa-ClpP
  IC50: 4.26 ± 0.16 µM
[1]; microsomal metabolic stability half-life, human liver microsomes
  Human – 2.66 ± 0.3 h
[2]; microsomal metabolic stability half-life, mouse liver microsomes
  Mouse: 2.49 ± 0.35 h

Reference: patent US10570179B2, “Substituted urea depsipeptide analogs as activators of the CLPP endopeptidase” (priority 2016, dated 2020)
